Article PMC7026418, “The kinase polypharmacology landscape of clinical PARP inhibitors” (Scientific Reports, 2020)
Where two headings read alike, the source gives them in different places.

How the values were obtained:
Test in all cases: biochemical
Design in all cases: DiscoveRx KINOMEscan active site-directed competition binding; percent of control kinase bound to immobilised ligand
[1] = target: PIM3 (Homo sapiens, UniProt Q86V86)
[2] = target: T1, RPS6KA4(Kin.Dom.1-N-terminal) (Homo sapiens, UniProt O75676)
T1 construct: Kin.Dom.1-N-terminal

[3] = target: T2, PCTK1 (Homo sapiens, UniProt Q00536)
T2 construct: gene CDK16
T2 sequence (Q00536 whole entry): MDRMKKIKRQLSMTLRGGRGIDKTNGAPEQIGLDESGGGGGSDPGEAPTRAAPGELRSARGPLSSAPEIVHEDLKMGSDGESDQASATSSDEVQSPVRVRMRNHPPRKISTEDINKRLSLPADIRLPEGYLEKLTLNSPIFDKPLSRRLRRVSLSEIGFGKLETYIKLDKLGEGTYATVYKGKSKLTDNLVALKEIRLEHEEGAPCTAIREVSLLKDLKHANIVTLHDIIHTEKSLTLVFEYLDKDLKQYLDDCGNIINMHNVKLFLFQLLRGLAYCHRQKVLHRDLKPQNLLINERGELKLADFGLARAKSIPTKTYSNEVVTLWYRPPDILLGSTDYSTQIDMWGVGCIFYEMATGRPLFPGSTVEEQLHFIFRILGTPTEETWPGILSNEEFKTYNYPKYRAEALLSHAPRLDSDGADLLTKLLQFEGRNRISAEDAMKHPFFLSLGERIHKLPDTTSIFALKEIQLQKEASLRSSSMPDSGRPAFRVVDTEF

[4] = target: T3, GRK2 (Homo sapiens, UniProt P25098)
T3 sequence (P25098 1-689): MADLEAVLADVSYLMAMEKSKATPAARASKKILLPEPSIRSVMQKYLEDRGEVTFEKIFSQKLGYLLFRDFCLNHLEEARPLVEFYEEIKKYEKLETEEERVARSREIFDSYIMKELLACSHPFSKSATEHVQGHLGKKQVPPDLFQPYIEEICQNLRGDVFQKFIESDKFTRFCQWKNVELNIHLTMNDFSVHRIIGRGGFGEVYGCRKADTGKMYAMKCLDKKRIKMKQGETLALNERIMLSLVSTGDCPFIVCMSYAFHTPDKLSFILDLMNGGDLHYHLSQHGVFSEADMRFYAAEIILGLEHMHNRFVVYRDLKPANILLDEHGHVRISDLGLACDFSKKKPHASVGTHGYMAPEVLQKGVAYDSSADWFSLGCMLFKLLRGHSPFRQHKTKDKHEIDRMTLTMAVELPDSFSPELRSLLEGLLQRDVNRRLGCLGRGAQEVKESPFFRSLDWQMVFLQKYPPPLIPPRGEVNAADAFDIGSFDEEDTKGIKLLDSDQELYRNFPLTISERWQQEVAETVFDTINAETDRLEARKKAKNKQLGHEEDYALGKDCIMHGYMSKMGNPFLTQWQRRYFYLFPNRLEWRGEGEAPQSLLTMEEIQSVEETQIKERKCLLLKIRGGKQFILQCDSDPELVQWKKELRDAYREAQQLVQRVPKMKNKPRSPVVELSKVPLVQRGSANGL

[5] = target: T4, RSK4(Kin.Dom.2-C-terminal) (Homo sapiens, UniProt Q9UK32)
T4 construct: gene RPS6KA6; Kin.Dom.2-C-terminal
T4 sequence (Q9UK32 whole entry): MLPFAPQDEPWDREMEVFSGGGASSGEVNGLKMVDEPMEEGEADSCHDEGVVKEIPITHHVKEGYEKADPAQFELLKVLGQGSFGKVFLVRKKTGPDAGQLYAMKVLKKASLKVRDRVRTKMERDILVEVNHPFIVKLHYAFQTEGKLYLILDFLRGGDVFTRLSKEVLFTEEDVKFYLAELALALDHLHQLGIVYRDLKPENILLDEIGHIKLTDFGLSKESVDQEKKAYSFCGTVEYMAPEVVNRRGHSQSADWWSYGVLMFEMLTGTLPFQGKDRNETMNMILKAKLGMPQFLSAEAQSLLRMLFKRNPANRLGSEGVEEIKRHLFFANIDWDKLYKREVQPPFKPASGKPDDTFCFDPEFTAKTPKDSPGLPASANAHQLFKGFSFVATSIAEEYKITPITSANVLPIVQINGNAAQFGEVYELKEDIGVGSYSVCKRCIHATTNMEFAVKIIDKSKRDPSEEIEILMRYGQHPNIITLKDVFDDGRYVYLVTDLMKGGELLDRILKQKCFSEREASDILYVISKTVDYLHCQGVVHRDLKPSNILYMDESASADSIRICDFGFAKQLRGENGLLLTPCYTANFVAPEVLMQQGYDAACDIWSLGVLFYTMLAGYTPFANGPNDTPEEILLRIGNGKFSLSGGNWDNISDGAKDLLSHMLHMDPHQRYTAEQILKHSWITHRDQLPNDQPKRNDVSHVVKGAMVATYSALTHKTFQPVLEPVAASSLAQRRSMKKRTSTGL

[6] = target: EGFR(S752-I759del) (Homo sapiens, UniProt P00533, DEL752-759)
EGFR(S752-I759del), sequence (P00533 with tags, fused parts or gaps DEL752-759): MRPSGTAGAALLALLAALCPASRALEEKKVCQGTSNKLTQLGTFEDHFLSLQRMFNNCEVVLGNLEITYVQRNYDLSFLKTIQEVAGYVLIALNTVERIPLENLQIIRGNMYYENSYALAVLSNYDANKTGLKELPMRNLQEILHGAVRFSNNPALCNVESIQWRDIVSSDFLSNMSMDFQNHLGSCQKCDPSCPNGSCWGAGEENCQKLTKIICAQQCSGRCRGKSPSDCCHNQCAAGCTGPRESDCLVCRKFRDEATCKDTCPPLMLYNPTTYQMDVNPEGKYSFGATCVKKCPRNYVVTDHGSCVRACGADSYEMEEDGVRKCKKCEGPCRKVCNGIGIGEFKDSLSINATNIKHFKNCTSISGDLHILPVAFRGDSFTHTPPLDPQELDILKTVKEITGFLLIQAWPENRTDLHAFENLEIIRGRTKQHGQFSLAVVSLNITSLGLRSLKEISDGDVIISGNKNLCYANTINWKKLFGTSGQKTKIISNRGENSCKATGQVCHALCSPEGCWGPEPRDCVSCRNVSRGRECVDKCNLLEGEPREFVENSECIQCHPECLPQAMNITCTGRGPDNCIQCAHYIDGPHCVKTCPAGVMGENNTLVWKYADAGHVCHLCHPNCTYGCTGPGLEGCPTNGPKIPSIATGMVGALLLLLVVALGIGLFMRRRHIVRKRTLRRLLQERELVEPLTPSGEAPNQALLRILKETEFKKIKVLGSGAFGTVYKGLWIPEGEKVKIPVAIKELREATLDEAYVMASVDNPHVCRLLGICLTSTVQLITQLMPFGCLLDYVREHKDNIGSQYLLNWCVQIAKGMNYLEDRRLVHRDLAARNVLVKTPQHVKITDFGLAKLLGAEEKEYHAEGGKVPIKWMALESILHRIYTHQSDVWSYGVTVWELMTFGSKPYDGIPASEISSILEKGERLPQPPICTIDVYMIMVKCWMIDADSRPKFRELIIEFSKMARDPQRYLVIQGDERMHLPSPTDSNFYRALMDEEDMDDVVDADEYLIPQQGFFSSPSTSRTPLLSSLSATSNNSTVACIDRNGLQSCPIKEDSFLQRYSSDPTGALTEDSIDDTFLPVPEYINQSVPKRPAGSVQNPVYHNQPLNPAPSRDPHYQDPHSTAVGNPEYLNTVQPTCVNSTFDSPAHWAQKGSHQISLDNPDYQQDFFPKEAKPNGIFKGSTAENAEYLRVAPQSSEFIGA

[7] = target: T5, MST1 (Homo sapiens, UniProt Q13043)
T5 construct: gene STK4
T5 sequence (Q13043 1-487): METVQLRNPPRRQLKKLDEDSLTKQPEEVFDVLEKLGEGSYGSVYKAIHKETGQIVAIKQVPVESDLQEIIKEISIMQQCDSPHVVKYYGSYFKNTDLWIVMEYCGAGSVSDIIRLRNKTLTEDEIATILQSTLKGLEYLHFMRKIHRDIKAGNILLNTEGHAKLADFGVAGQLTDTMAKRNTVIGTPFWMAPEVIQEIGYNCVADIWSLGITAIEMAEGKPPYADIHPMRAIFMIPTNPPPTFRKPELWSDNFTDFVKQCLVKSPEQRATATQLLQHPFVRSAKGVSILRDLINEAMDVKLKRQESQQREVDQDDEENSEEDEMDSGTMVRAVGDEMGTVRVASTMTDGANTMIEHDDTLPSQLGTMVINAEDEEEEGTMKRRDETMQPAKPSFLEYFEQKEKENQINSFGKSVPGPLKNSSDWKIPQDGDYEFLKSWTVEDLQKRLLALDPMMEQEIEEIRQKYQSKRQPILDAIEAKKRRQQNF

[8] = target: GSK3B (Homo sapiens, UniProt P49841)
GSK3B, sequence (P49841 whole entry): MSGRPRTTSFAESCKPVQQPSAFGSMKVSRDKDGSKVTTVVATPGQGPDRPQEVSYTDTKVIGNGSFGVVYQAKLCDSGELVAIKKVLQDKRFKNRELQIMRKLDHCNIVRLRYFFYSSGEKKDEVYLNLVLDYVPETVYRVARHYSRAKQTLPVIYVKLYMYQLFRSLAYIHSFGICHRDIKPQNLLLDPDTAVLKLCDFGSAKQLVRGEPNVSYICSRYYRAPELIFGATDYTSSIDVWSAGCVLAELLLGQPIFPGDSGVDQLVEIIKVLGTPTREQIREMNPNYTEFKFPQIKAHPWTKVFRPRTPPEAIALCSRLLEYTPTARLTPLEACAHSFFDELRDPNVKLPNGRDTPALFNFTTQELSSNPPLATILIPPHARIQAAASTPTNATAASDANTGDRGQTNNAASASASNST

[9] = target: EGFR(G719C) (Homo sapiens, UniProt P00533, G719C)
[10] = target: T6, CSNK1A1L (Homo sapiens, UniProt Q8N752)
T6 sequence (Q8N752 1-337): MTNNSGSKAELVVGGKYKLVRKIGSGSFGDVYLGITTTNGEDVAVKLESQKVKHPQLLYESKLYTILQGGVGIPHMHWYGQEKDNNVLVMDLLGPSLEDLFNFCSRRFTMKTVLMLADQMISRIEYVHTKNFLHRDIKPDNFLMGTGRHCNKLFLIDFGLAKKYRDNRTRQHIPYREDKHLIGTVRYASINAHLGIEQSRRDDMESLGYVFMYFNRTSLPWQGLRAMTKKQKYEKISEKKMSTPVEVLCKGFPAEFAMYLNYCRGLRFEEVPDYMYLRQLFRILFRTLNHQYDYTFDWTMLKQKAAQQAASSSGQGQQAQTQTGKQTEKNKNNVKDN

[11] = target: T7, ERK5 (Homo sapiens, UniProt Q13164)
T7 construct: gene MAPK7
T7 sequence (Q13164 whole entry): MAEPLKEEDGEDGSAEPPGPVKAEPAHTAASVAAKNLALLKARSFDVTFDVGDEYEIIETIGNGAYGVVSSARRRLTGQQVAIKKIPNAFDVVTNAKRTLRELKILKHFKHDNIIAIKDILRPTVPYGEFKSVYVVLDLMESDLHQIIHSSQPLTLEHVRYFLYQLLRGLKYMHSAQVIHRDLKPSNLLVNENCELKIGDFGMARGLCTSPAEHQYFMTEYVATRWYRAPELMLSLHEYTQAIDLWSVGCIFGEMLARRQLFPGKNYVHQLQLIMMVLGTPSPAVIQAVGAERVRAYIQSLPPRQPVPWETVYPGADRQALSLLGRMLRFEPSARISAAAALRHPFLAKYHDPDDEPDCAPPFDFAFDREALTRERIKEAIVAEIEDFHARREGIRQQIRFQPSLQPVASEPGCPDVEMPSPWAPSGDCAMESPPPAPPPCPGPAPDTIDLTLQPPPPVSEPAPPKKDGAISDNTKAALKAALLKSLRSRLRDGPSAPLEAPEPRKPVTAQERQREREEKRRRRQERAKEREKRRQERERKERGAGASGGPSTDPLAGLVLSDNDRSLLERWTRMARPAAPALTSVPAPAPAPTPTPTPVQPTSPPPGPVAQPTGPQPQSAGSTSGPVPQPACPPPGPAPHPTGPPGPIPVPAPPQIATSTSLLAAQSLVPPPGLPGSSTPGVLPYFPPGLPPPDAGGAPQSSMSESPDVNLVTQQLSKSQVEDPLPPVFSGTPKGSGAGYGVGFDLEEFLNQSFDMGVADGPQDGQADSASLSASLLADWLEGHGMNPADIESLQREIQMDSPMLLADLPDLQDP

[12] = target: DAPK2 (Homo sapiens, UniProt Q9UIK4)
DAPK2, sequence (Q9UIK4 whole entry): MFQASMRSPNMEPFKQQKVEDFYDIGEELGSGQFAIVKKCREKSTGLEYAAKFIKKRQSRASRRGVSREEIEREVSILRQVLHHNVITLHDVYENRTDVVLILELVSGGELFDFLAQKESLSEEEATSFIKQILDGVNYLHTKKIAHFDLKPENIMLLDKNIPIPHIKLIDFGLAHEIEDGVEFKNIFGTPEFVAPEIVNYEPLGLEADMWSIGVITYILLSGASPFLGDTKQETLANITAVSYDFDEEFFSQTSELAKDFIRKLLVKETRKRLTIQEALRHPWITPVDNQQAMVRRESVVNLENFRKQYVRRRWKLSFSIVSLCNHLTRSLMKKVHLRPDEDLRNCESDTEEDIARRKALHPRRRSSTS

[13] = target: T8, MST4 (Homo sapiens, UniProt Q9P289)
T8 construct: gene STK26
T8 sequence (Q9P289 whole entry): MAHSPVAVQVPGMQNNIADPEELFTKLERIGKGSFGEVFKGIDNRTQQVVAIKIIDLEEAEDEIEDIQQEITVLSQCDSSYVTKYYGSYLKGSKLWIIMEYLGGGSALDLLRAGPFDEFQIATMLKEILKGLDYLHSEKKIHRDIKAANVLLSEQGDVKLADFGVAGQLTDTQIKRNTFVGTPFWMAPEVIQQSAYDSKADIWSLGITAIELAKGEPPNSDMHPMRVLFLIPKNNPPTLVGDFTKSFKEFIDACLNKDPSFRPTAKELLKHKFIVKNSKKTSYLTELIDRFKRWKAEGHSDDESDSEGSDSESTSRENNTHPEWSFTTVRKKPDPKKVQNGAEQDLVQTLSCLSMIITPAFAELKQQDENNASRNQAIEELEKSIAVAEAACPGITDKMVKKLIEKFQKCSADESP

[14] = read-out: Talazoparib (BMN 673) / %Ctrl @ 10000nM
[15] = read-out: Olaparib / %Ctrl @ 10000nM
[16] = read-out: Niraparib (MK-4827) / %Ctrl @ 10000nM
[17] = read-out: Rucaparib / %Ctrl @ 10000nM, binding competition, % of control

Cn1ncnc1[C@H]1c2n[nH]c(=O)c3cc(F)cc(c23)N[C@@H]1c1ccc(F)cc1 [Talazoparib]
percent of control binding at 10 µM [1, 14]: 100% | percent of control binding at 10 µM [2, 14]: 61% | percent of control binding at 10 µM [3, 14]: 86% | percent of control binding at 10 µM [4, 14]: 100% | percent of control binding at 10 µM [5, 14]: 97% | percent of control binding at 10 µM [6, 14]: 100% | percent of control binding at 10 µM [7, 14]: 100% | percent of control binding at 10 µM [8, 14]: 100% | percent of control binding at 10 µM [9, 14]: 99% | percent of control binding at 10 µM [10, 14]: 100% | percent of control binding at 10 µM [11, 14]: 99% | percent of control binding at 10 µM [12, 14]: 95% | percent of control binding at 10 µM [13, 14]: 89%

O=C(c1cc(Cc2n[nH]c(=O)c3ccccc23)ccc1F)N1CCN(C(=O)C2CC2)CC1 [Olaparib]
percent of control binding at 10 µM [1, 15]: 99% | percent of control binding at 10 µM [2, 15]: 100% | percent of control binding at 10 µM [3, 15]: 99% | percent of control binding at 10 µM [4, 15]: 79% | percent of control binding at 10 µM [5, 15]: 92% | percent of control binding at 10 µM [6, 15]: 84% | percent of control binding at 10 µM [7, 15]: 97% | percent of control binding at 10 µM [8, 15]: 98% | percent of control binding at 10 µM [9, 15]: 98% | percent of control binding at 10 µM [10, 15]: 99% | percent of control binding at 10 µM [11, 15]: 100% | percent of control binding at 10 µM [12, 15]: 100% | percent of control binding at 10 µM [13, 15]: 91%

NC(=O)c1cccc2cn(-c3ccc([C@@H]4CCCNC4)cc3)nc12 [Niraparib]
percent of control binding at 10 µM [1, 16]: 17% | percent of control binding at 10 µM [2, 16]: 100% | percent of control binding at 10 µM [3, 16]: 47% | percent of control binding at 10 µM [4, 16]: 97% | percent of control binding at 10 µM [5, 16]: 100% | percent of control binding at 10 µM [6, 16]: 71% | percent of control binding at 10 µM [7, 16]: 87% | percent of control binding at 10 µM [8, 16]: 88% | percent of control binding at 10 µM [9, 16]: 86% | percent of control binding at 10 µM [10, 16]: 76% | percent of control binding at 10 µM [11, 16]: 100% | percent of control binding at 10 µM [12, 16]: 81% | percent of control binding at 10 µM [13, 16]: 64%

CNCc1ccc(-c2[nH]c3cc(F)cc4c3c2CCNC4=O)cc1 [Rucaparib]
percent of control binding at 10 µM [2, 17]: 100% | percent of control binding at 10 µM [3, 17]: 13% | percent of control binding at 10 µM [4, 17]: 70% | percent of control binding at 10 µM [5, 17]: 82% | percent of control binding at 10 µM [6, 17]: 89% | percent of control binding at 10 µM [7, 17]: 85% | percent of control binding at 10 µM [8, 17]: 89% | percent of control binding at 10 µM [9, 17]: 82% | percent of control binding at 10 µM [10, 17]: 86% | percent of control binding at 10 µM [11, 17]: 100% | percent of control binding at 10 µM [12, 17]: 37% | percent of control binding at 10 µM [13, 17]: 67%
